The values that follow come from PMC6842111 (Neuron, 2019).

Read-outs that look alike come from different tables or passages of the source.

What is called pKa is the pH at which an ionisable group is half protonated. Lower therefore signals a stronger acid or weaker base.

Series [1] can be described thus: pKa of the bridging nitrogen. Format: physicochemical. Particulars: positively-charged bridging nitrogen of the bicyclic ring.
The subject of another series is human α3β4 receptor. Conditions: ref Tuan et al., 2015; cited from earlier work.
A further series deals with α3β4. Particulars: cited from earlier work.
Series [2] concerns the target T1, α3β4 receptor (Homo sapiens, UniProt P30926+P32297, DEL362-406/DEL379-429/F412N/I408D/INS413[…]/INS432[…]/L414K/P409L/R410E/R415Y/S416L/S433L/V431D). Description: Functional response to nicotine in presence of Fab. Particulars: Fig. S1B. Format: cell-based.
The target in series [3] is T1, α3β4 receptor. Format: binding. Conditions: Fab in large excess (1 μM); Fig. S1C-F.
The mark [4] stands for this setting: ref Eaton et al., 2003, Xiao et al., 1998.

In series [1], `CN1C2CCCC1CC(Nc1ccccc1Br)C2` (centres unmarked) [AT-1001] gave a pKa of 9.35. Also, in the series with human α3β4 receptor, the “affinity to the human α3β4 receptor” value is recorded as “sub-nanomolar” and the “selectivity for α3β4 over α4β2” value is reported as ~ 200 fold. For `CC(=O)OCC[N+](C)(C)C` [acetylcholine], in the series on α3β4 (setting [4]), the “affinity lower for α3β4 than for α4β2” value is on record as 10-100 fold. Regarding `Clc1ccc(C2CC3CCC2N3)cn1` (centres unmarked) [epibatidine], in the series on α3β4 (setting [4]), the “affinity lower for α3β4 than for α4β2” value is reported as 10-100 fold. As for `CN1CCC[C@H]1c1cccnc1` [nicotine], in the series with α3β4, the “affinity lower for α3β4 than for α4β2” value was 10-100 fold.

B1: Fab: Fab fragment of the 4G9 mouse monoclonal antibody (IgG2b, κ) raised against α3β4 (antibody, V domains shown)
VH: QVQLQQSGPELVRPGVSVKISCKGSGYTFTDYALYWVRQSHAKSLEWIGVINPYSGNTNYNQKFKGKATMTVDKSSSTAYMELARLTSDDSAIYYCASGYDGYPYTMDYWGPGASVTVSS
VL: QIVLTQSPAIMSASPGEKVTMTCSASSSMTYMHWYQQKSGTSPKRWIYDTSQLASGVPARFRGSGSGTSFSLTISSMEAEDAATYYCQQWSSNPLTFGGGTKLELK
On to B1, for which, in the series with α3β4 receptor [2], the “effect on the functional response to nicotine” value was “little to no effect”. The “effect on ligand binding” value in the series with α3β4 receptor [3] is “small positive effect”.
